Experimental data: US9026372B2, “Methods for providing a system of care for a high-dose oxazaphosphorine drug regimen” (Accentia Biopharmaceuticals, Inc., priority 2007, dated 2015)
Read-outs that look alike come from different tables or passages of the source.

Columns and labels:
[1] = test system: white blood cell (WBC) count
Source text: On Day 6, (six days after completion of high-dose cyclophosphamide treatment), patients received G-CSF.

[2] = test system: aggressive relapsing-remitting multiple sclerosis
Source text: All 9 patients had aggressive relapsing-remitting multiple sclerosis, 8 of whom failed conventional therapy and 1 was untreated. Median age at time of entry was 29 years (range of 20 to 47 years). The mean number of gadolinium enhancing lesions on baseline MRI was 6.5 (range 3-11).

For `O=P1(N(CCCl)CCCl)NCCCO1` (centres unmarked) [cyclophosphamide], the “minimum WBC” value ([1]; patient HiCy01, never had GEL, suspected exacerbations) was 70, the “minimum WBC” value ([1]; patient HiCy07, went to 0 GEL, single GEL on follow-up MRI) was 6 and the “minimum WBC count” value ([1]; patient HiCy11, GEL on every follow up) was 24. The “minimum WBC” value ([1]; patient HiCy14, went to 0 GEL, single GEL on follow-up MRI) was 31, the “minimum WBC count” value ([1]; patient HiCy19, GEL on every follow up, only 6 months of follow-up) was 50 and the “WBC count (minimum)” value ([1]; patients HiCy05 and HiCy13, within two weeks of treatment, no GEL up to 24 months follow-up) was 0. The “minimum WBC count” value ([1]; patients HiCy09 and HiCy15 (both), 0 GEL) was 12, the “reduction in disability (EDSS)” value ([2]; 9 patients, at baseline 66% had EDSS of 5.0 or more) was 50% and the “reduction in gadolinium enhancements” value ([2]; at 6 months following 50 mg/kg/day intravenously for four days, 9 patients, baseline mean 6.5 lesions) was 90%. For the same compound, the “reduction in gadolinium enhancements” value ([2]; by 18 months following 50 mg/kg/day intravenously for four days, 9 patients) was 94%, the adverse outcomes ([2]; initial cohort of 9 patients with severe relapsing MS) was “no significant adverse outcomes” and the “patients having no disability (EDSS score of 0)” value ([2]; of 9 patients, after treatment) was 3 patients. For the same compound, the “patients with EDSS score of 1” value ([2]; of 9 patients, after treatment) was 1 patient and the “patients with an exacerbation during follow-up” value ([2]; of 9 patients, started on conventional MS therapy at 18 months) was “one”.
